Test results: article PMC9841532, “Exploring the Effect of Halogenation in a Series of Potent and Selective A2B Adenosine Receptor Antagonists” (Journal of Medicinal Chemistry, 2022)

Tested on: human peripheral blood mononuclear cells (PBMCs)
Experiment: Proliferation of CFSE-labeled activated PBMCs in the presence of adenosine
Type: cell-based
Conditions: PBMCs + anti-CD3/CD28 + IL-2 + Ado 0.1 mM + compound 15 μM, 3 days
From the text: To gain evidence supporting the role of the here optimized A2BAR antagonists in the context of cancer immunotherapy, it was decided to evaluate the effect of two representative compounds (16b and 16j) in the proliferative activity of a prototypical immune cell. The human peripheral blood mononuclear cells (PBMCs) were selected for the study; they are critical components of the immune system and are involved in both humoral and cell-mediated immunity. Ado-mediated blockade of PBMC proliferation is well documented and characterized;[51],[52] we therefore investigated whether our A2BAR antagonists (16b and 16j) can reverse the blockade of ADO-mediated proliferation in human PBMCs. PBMCs, isolated from a healthy donor, were labeled with carboxyfluorescein succinimidyl ester (CFSE) and then activated by adding anti-CD3/CD28 antibodies and interleukin 2 (IL-2). CFSE is a cell dye that allows for the determination of cell proliferation, as dividing cells progressively lose fluorescence.
Figure 10 Effect of compounds 16b and 16j on the proliferation of PBMCs stimulated with antiCD3/CD28 + IL-2 in the presence of adenosine (ADO). […] The frequency of proliferating cells (CFSE^dim) as well as their median fluorescence intensities were quantified and ratios calculated against the values of stimulated PBMCs with no further treatment. […]

| SMILES | frequency of proliferating cells (CFSEdim) |
| --- | --- |
| CC1=C(C(=O)OC(C)C)C(c2ccco2)n2c(nc3cc(F)ccc32)N1 (centres unmarked) [16b] | 9.14% |
| CC1=C(C(=O)OC(C)C)C(c2ccco2)n2c(nc3cc(Cl)ccc32)N1 (centres unmarked) [16j] | 6.54% |
